# Tests used:
# Format in all cases: binding
# [1] = target: T1, JAK1 (Homo sapiens, UniProt P23458); assay: Kinobeads assay with immunodetection, JAK1; details: for IC50: Kinobeads assay, mixed Molt4/Ramos lysate, read-out: Inhibition values (IC50) JAK1
# T1 construct: endogenous in cells; host or cells: Molt4 (ATCC CRL-1582) and Ramos (ATCC CRL-1596) cells; mixed lysate 1:2
# Protocol: (§1) Determination of the Effect of the Compounds According to the Invention on Janus Kinases (JAK Family) in Kinobeads™ Assays with Immunodetection of Kinases
# (§2) The compounds of the present invention as described in the previous examples were tested in a Kinobeads™ assay as described for ZAP-70 (WO-A 2007/137867). Briefly, test compounds (at various concentrations) and the affinity matrix with the immobilized aminopyrido-pyrimidine ligand 24 were added to cell lysate aliquots and allowed to bind to the proteins in the lysate sample. After the incubation time the beads with captured proteins were separated from the lysate. Bound proteins were then eluted and the presence of JAK1, JAK2, JAK3 and TYK2 was detected and quantified using specific antibodies in a dot blot procedure and the Odyssey infrared detection system. Dose response curves for individual kinases were generated and IC50 values calculated. Kinobeads™ assays for ZAP-70 (WO-A 2007/137867) and for kinase selectivity profiling (WO-A 2006/134056) have been previously described.
# (§3) The affinity matrix was washed two times with 15 mL of 1×DP buffer containing 0.2% NP40 (IGEPAL® CA-630, Sigma, #13021) and then resuspended in 1×DP buffer containing 0.2% NP40 (3% beads slurry).
# (§4) 5×DP buffer: 250 mM Tris-HCl pH 7.4, 25% Glycerol, 7.5 mM MgCl2, 750 mM NaCl, 5 mM Na3VO4; filter the 5×DP buffer through a 0.22 μm filter and store in aliquots at −80° C. The 5×DP buffer is diluted with H2O to 1×DP buffer containing 1 mM DTT and 25 mM NaF.
# (§5) Stock solutions of test compounds were prepared in DMSO. In a 96 well plate 30 μL solution of diluted test compounds at 5 mM in DMSO were prepared. Starting with this solution a 1:3 dilution series (9 steps) was prepared. For control experiments (no test compound) a buffer containing 2% DMSO was used.
# (§6) Molt4 cells (ATCC catalogue number CRL-1582) and Ramos cells (ATCC catalogue number CRL-1596) were grown in 1 L Spinner flasks (Integra Biosciences, #182101) in suspension in RPMI 1640 medium (Invitrogen, #21875-034) supplemented with 10% Fetal Bovine Serum (Invitrogen) at a density between 0.15×10^6 and 1.2×10^6 cells/mL. Cells were harvested by centrifugation, washed once with 1×PBS buffer (Invitrogen, #14190-094) and cell pellets were frozen in liquid nitrogen and subsequently stored at −80° C. Cells were homogenized in a Potter S homogenizer in lysis buffer: 50 mM Tris-HCl, 0.8% NP40, 5% glycerol, 150 mM NaCl, 1.5 mM MgCl2, 25 mM NaF, 1 mM sodium vanadate, 1 mM DTT, pH 7.5. One complete EDTA-free tablet (protease inhibitor cocktail, Roche Diagnostics, 1873580) per 25 ml, buffer was added. The material was dounced 10 times using a mechanized POTTER S, transferred to 50 mL falcon tubes, incubated for 30 minutes on ice and spun down for 10 minutes at 20,000 g at 4° C. (10,000 rpm in Sorvall SLA600, precooled). The supernatant was transferred to an ultracentrifuge (UZ)-polycarbonate tube (Beckmann, 355654) and spun for 1 hour at 100.000 g at 4° C. (33.500 rpm in Ti50.2, precooled). The supernatant was transferred again to a fresh 50 mL falcon tube, the protein concentration was determined by a Bradford assay (BioRad) and samples containing 50 mg of protein per aliquot were prepared. The samples were immediately used for experiments or frozen in liquid nitrogen and stored frozen at −80° C.
# (§7) Cell lysate (approximately 50 mg protein per plate) was thawed in a water bath at room temperature and then stored on ice. To the thawed cell lysate 1×DP 0.8% NP40 buffer containing protease inhibitors (1 tablet for 25 mL buffer; EDTA-free protease inhibitor cocktail; Roche Diagnostics 1873580) was added in order to reach a final protein concentration of 10 mg/mL total protein. The diluted cell lysate was stored on ice. Mixed Molt4/Ramos lysate was prepared by combining one volume of Molt4 lysate and two volumes of Ramos lysate (ratio 1:2). […]
# [2] = target: T2, JAK2 (Homo sapiens, UniProt O60674); assay: Kinobeads assay with immunodetection, JAK2; details: mixed Molt4/Ramos lysate, read-out: Inhibition values (IC50) JAK2
# T2 construct: endogenous in cells; host or cells: Molt4 (ATCC CRL-1582) and Ramos (ATCC CRL-1596) cells; mixed lysate 1:2
# T2 sequence (O60674 whole entry): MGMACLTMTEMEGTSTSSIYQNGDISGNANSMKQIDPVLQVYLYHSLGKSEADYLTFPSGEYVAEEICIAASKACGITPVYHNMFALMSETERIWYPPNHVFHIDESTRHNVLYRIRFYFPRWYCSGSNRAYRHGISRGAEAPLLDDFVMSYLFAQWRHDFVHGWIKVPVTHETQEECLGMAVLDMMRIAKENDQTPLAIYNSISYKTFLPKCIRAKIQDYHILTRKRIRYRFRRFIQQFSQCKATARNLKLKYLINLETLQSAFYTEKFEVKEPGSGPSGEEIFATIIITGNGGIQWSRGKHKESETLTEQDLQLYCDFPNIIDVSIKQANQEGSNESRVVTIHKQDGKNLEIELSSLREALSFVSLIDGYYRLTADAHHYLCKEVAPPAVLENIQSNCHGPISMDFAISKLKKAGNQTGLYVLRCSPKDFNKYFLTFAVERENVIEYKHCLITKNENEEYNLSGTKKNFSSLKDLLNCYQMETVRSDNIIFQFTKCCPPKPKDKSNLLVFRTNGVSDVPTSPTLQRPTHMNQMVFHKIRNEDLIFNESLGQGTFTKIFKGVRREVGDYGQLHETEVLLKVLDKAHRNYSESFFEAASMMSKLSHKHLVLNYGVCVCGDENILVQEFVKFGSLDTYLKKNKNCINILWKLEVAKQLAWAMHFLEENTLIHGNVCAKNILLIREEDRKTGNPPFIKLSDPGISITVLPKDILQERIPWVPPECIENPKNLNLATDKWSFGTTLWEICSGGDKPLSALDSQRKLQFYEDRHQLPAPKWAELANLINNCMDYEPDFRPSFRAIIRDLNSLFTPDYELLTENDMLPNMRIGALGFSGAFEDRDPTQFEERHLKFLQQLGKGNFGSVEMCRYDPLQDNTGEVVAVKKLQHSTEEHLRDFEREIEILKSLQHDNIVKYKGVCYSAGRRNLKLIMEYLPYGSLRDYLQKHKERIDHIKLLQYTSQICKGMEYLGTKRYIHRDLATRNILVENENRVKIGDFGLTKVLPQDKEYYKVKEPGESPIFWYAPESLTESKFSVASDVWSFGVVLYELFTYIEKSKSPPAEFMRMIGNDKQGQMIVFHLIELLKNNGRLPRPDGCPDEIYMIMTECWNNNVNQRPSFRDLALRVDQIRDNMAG
# Protocol: as §1, §2, §3, §4, §5, §6, §7
# [3] = target: T3, JAK3 (Homo sapiens, UniProt P52333); assay: Kinobeads assay with immunodetection, JAK3; details: Kinobeads assay, mixed Molt4/Ramos lysate; read-out: Inhibition values (IC50) JAK3
# T3 construct: endogenous in cells; host or cells: Molt4 (ATCC CRL-1582) and Ramos (ATCC CRL-1596) cells; mixed lysate 1:2
# T3 sequence (P52333 1-1124): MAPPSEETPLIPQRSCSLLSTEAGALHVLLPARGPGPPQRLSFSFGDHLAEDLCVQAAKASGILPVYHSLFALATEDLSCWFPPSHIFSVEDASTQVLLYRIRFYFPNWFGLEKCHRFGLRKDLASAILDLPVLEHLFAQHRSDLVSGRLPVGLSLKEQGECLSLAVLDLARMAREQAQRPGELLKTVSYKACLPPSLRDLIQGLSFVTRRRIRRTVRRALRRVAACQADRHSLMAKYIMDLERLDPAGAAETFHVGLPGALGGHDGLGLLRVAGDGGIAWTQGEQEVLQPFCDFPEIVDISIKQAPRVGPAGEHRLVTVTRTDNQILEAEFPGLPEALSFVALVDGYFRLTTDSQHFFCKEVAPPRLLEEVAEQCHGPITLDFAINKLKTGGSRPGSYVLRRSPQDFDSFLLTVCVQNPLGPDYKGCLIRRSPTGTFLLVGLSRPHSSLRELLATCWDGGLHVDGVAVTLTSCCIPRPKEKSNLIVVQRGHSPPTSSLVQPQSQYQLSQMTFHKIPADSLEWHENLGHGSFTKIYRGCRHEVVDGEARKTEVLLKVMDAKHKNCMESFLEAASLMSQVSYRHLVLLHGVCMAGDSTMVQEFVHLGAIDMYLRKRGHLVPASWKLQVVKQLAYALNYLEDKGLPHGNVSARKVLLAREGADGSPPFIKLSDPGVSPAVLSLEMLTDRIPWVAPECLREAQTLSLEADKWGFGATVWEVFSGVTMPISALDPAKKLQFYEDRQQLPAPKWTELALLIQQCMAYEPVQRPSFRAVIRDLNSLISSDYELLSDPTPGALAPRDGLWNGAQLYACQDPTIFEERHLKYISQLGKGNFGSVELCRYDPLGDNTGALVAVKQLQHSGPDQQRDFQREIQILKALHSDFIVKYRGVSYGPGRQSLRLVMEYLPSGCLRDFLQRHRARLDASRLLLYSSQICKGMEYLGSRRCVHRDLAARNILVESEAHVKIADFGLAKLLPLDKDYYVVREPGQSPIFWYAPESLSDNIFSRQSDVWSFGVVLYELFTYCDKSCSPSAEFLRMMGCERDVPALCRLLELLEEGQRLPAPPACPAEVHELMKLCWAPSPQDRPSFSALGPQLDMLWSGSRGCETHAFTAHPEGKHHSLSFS
# Protocol: as §1, §2, §3, §4, §5, §6, §7
# [4] = target: T4, TYK2 (Homo sapiens, UniProt P29597); assay: Kinobeads assay with immunodetection, TYK2; details: for IC50: Kinobeads assay, mixed Molt4/Ramos lysate, read-out: Inhibition values (IC50) Tyk2
# T4 construct: endogenous in cells; host or cells: Molt4 (ATCC CRL-1582) and Ramos (ATCC CRL-1596) cells; mixed lysate 1:2
# T4 sequence (P29597 whole entry): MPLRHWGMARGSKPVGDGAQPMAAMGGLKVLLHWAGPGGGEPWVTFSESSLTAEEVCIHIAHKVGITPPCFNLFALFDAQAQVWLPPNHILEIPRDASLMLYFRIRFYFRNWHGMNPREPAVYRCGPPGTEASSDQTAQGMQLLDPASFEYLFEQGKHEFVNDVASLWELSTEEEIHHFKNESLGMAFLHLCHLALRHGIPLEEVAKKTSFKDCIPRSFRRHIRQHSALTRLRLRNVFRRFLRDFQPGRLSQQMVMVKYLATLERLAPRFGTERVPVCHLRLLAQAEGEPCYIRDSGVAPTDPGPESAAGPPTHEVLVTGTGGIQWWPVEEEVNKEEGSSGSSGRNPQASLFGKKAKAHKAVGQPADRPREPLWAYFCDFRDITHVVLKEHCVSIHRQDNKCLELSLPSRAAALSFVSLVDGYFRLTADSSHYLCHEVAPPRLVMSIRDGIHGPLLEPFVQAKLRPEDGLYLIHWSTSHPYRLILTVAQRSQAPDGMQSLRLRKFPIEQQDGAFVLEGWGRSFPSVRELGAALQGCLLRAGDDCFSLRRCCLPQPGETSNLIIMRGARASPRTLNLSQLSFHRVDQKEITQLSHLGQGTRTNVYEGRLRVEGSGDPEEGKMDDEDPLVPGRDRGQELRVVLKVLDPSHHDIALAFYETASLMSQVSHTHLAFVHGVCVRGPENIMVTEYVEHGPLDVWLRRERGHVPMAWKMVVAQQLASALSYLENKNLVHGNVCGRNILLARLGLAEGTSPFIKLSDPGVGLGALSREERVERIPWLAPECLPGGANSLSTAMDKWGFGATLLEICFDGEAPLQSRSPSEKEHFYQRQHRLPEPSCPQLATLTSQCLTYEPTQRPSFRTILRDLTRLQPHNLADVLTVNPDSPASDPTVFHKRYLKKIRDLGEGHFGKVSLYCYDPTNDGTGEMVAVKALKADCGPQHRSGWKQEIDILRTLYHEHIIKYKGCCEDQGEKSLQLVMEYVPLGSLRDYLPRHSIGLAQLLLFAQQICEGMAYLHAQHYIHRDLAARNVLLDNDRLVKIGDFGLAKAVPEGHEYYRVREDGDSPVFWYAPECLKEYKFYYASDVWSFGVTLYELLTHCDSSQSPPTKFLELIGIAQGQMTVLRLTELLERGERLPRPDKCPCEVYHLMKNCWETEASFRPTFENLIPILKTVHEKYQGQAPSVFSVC
# Protocol: as §1, §2, §3, §4, §5, §6, §7
# T1 sequence (P23458 whole entry): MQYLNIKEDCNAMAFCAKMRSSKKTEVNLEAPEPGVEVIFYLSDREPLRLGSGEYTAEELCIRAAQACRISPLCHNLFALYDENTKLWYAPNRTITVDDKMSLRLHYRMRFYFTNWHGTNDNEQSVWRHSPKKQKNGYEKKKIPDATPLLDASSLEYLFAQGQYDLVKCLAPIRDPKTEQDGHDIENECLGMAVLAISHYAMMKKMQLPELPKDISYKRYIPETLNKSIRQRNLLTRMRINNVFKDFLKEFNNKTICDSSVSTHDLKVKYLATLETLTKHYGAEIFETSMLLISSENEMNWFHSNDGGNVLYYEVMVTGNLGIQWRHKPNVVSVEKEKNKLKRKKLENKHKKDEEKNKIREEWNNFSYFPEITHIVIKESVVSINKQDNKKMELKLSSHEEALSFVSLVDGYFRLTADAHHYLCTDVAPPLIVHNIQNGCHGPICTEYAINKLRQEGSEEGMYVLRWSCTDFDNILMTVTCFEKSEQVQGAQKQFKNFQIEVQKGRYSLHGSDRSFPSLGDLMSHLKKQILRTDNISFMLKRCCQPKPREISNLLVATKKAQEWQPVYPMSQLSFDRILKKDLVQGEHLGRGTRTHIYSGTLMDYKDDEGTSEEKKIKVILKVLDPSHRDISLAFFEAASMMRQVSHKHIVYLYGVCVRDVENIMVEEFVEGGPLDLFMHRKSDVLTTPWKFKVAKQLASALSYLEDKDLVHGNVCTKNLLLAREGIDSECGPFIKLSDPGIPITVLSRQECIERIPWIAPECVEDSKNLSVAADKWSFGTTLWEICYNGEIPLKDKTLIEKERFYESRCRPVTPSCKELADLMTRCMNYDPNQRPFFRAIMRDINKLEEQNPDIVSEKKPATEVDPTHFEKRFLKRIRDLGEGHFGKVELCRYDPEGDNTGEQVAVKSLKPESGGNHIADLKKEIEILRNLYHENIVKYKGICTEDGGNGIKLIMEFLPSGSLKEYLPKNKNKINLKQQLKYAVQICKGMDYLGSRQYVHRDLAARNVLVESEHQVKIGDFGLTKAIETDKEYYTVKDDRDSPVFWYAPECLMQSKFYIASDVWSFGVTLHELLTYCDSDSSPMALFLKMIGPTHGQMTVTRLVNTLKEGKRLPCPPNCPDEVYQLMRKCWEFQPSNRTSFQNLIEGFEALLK
SMILES,"Selectivity ratio over JAK2, JAK1 [1]",IC50 [1] [nM],IC50 [2] [nM],IC50 [3] [nM],IC50 [4] [nM],"Selectivity ratio over JAK2, Tyk2 [4]"
"Cc1cnc(Nc2cnn(C)c2)nc1NC[C@@H]1C[C@H](F)CN1CCS(C)(=O)=O [Example 100, N^4-(((2S,4S)-4-fluoro-1-(2-(methylsulfonyl)ethyl)pyrrolidin-2-yl)methyl)-5-methyl-N^2-(1-methyl-1H-pyrazol-4-yl)pyrimidine-2,4-diamine]",JAK1 = 26,< 100,100 to 1000,100 to 1000,< 100,
"Cn1cc(Nc2ncc(Cl)c(NCC3CCOCC3)n2)cn1 [Example 46, 5-chloro-N^2-(1-methyl-1H-pyrazol-4-yl)-N^4-((tetrahydro-2H-pyran-4-yl)methyl)pyrimidine-2,4-diamine]",JAK1 = 6,100 to 1000,1000 to 10000,100 to 1000,100 to 1000,
"Cn1cc(Nc2ncc(Cl)c(NCC3CN(S(C)(=O)=O)C3)n2)cn1 [Example 18, 5-chloro-N^2-(1-methyl-1H-pyrazol-4-yl)-N^4-((1-(methylsulfonyl)azetidin-3-yl)methyl)pyrimidine-2,4-diamine]",,> 10000,> 10000,> 10000,> 10000,
"CN(C)CC(=O)N1CCC[C@@H]1CNc1nc(Nc2cnn(C)c2)ncc1Cl [Example 53, (R)-1-(2-((5-chloro-2-(1-methyl-1H-pyrazol-4-ylamino)pyrimidin-4-ylamino)methyl)pyrrolidin-1-yl)-2-(dimethylamino)ethanone]",JAK1 = 93,< 100,1000 to 10000,100 to 1000,100 to 1000,
"C=CC(=O)N1CCCC[C@H]1CNc1nc(Nc2cnn(CCO)c2)ncc1Cl [Example 35, (S)-1-(2-(((5-chloro-2-((1-(2-hydroxyethyl)-1H-pyrazol-4-yl)amino)pyrimidin-4-yl)amino)methyl)piperidin-1-yl)prop-2-en-1-one]",,100 to 1000,> 10000,1000 to 10000,1000 to 10000,
"Cc1cnc(Nc2cnn(CC(F)F)c2)nc1NC[C@H]1CCCN1C(=O)CC#N [Example 118, (R)-3-(2-(((2-((1-(2,2-difluoroethyl)-1H-pyrazol-4-yl)amino)-5-methylpyrimidin-4-yl)amino)methyl)pyrrolidin-1-yl)-3-oxopropanenitrile]",JAK1 = 69,< 100,100 to 1000,100 to 1000,< 100,
"CCN1CCC[C@@H]1CNc1nc(Nc2cnn(C)c2)ncc1Cl [Example 60, (R)-5-chloro-N^4-((1-ethylpyrrolidin-2-yl)methyl)-N^2-(1-methyl-1H-pyrazol-4-yl)pyrimidine-2,4-diamine]",JAK1 = 45,100 to 1000,> 10000,100 to 1000,100 to 1000,
"Cn1cc(Nc2ncc(Cl)c(NC[C@H]3CCCN3CCC#N)n2)cn1 [Example 49, (R)-3-(2-((5-chloro-2-(1-methyl-1H-pyrazol-4-ylamino)pyrimidin-4-ylamino)methyl)pyrrolidin-1-yl)propanenitrile]",,< 100,100 to 1000,< 100,< 100,Tyk2 = 42
"CN(C)C(=O)Cn1cc(Nc2ncc(Cl)c(NC[C@@H]3CCCN3)n2)cn1 [Example 66, (S)-2-(4-(5-chloro-4-(pyrrolidin-2-ylmethylamino)pyrimidin-2-ylamino)-1H-pyrazol-1-yl)-N,N-dimethylacetamide]",,1000 to 10000,> 10000,1000 to 10000,100 to 1000,
"Cn1cc(Nc2ncc(Cl)c(NC[C@H]3CCCN3CCS(C)(=O)=O)n2)cn1 [Example 50, (R)-5-chloro-N^2-(1-methyl-1H-pyrazol-4-yl)-N^4-((1-(2-(methylsulfonyl)ethyl)pyrrolidin-2-yl)methyl)pyrimidine-2,4-diamine]",,< 100,100 to 1000,< 100,< 100,Tyk2 = 25
"Cc1cnc(Nc2cnn(CC(F)F)c2)nc1NC[C@H]1CCCN1CCS(C)(=O)=O [Example 116, (R)—N^2-(1-(2,2-difluoroethyl)-1H-pyrazol-4-yl)-5-methyl-N^4-((1-(2-(methylsulfonyl)ethyl)pyrrolidin-2-yl)methyl)pyrimidine-2,4-diamine]",JAK1 = 70,< 100,1000 to 10000,< 100,< 100,
"CC(=O)N1CC[C@H](CNc2nc(Nc3cnn(C)c3)ncc2Cl)C1 [Example 20, (R)-1-(3-(((5-chloro-2-((1-methyl-1H-pyrazol-4-yl)amino)pyrimidin-4-yl)amino)methyl)pyrrolidin-1-yl)ethanone]",JAK1 = 42,100 to 1000,1000 to 10000,1000 to 10000,100 to 1000,
"Cn1cc(Nc2ncc(Cl)c(NC[C@@H]3CCCN3CCC#N)n2)cn1 [Example 81, (S)-3-(2-(((5-chloro-2-((1-methyl-1H-pyrazol-4-yl)amino)pyrimidin-4-yl)amino)methyl)pyrrolidin-1-yl)propanenitrile]",,< 100,< 100,100 to 1000,< 100,Tyk2 = 11
